Test system: keratinocytes, HaCaT cells
Assay: Inhibition rate on keratinocyte (HaCaT cell) proliferation, MTT
Assay type: cell-based
Conditions: Homo sapiens
Protocol: Dimethyl sulfoxide (DMSO) was used as a solvent to prepare apigenin test samples with different concentrations and luteolin test samples with different concentrations. 9 batches of experiments were performed, which respectively were Batch 1 to Batch 9. There were 6 independent experiments in each batch of experiments. In each independent experiment, inhibition rate of an apigenin test sample with a specific concentration on keratinocyte proliferation and inhibition rate of a luteolin test sample with a specific concentration on keratinocyte proliferation were determined, and inhibition rate of a combination of an apigenin test sample with the said specific concentration and a luteolin test sample with the said specific concentration on keratinocyte proliferation was determined. Between the independent experiments, concentrations of apigenin test samples used were different, and concentrations of luteolin test samples used were also different, however, mole ratios or weight ratios of apigenin test samples to luteolin test samples were the same. Moreover, between the batches of experiments, mole ratios or weight ratios of apigenin test samples to luteolin test samples were different. 5×10^3 keratinocytes, HaCaT cells, were inoculated in a 96-well culture plate and then placed in a 37° C. and 5% CO2 incubator for culturing overnight, and cell numbers at this time point (T0) was used as a benchmark for cell proliferation. After overnight culture, a test sample was added to the cells in the culture plate (refer to Table 1, and the cells of the control group were only treated with dimethyl sulfoxide) for co-culturing for 48 hours (T48). After that, the supernatant in the culture plate was removed. After the supernatant was removed, 50 μL MTT solution (0.5 mg/mL; Life Technologies Cat. No. M-6494) was added to cells and then the culture plate was placed in a 37° C. and 5% CO2 incubator for culturing for 1.5 hours. After that, 150 μL DMSO (J. T. Baker, Cat. No. 9224-03) was added to the cells in the culture plate and shaken for 5 minutes. Thereafter, the absorbance of each well of the culture plate was determined at 570 nm by a continuous wavelength microplate reader, and inhibition rate on cell proliferation was calculated through the following formula: Inhibition rate on cell proliferation=T48 Control group570 nm−T48 Experimental group570 nm)/(T48 Control group570 nm−T0 Control group570 nm) In this experiment, the synergistic effects of apigenin and luteolin were evaluated by CalcuSyn software (BIOSOFT). CalcuSyn software is an analysis software which is commonly used to analyze the drug dosage effect of single drug and multiple drugs at present. CalcuSyn software can be used to analyze drug complex interactions and automatically quantify various phenomena such as synergism and inhibition. CalcuSyn software can process the data of individual drugs and combination drugs with constant-ratio or on-constant-ratio, and can evaluate the interaction of combination drugs by the combination index (CI) (Chou and Talalay, Adv. Enzyme Regul. 22:27-55 (1984) calculated by CalcuSyn software. Calculation formula for the combination index is shown in the following: Combination index=C1/IC1+C2/IC2 C1 and C2 are the respective concentrations of the first compound and the second compound at which the activity of achieving a specific physiological or medical purpose is 50% (or 75%, or 90%) when the first compound and the second compound are analyzed in combination; IC1 and IC2 are the respective concentrations at which the activity of achieving a specific physiological or medical purpose of the first compound and the second compound is 50% (or 75%, or 90%) when the first compound and the second compound are independently analyzed. […]

SMILES: O=c1cc(-c2ccc(O)cc2)oc2cc(O)cc(O)c12 [Apigenin, apigenin]
- inhibition at 3.125 µM (Batch 1, apigenin 3.125 μM/0.84 μg/mL): 0%
- inhibition at 6.25 µM (Batch 1, apigenin 6.25 μM/1.69 μg/mL): 0%
- inhibition at 12.5 µM (Batch 1, apigenin 12.5 μM/3.38 μg/mL): 12.2%
- inhibition at 25 µM (Batch 1, apigenin 25 μM/6.76 μg/mL): 29.2%
- inhibition at 50 µM (Batch 1, apigenin 50 μM/13.51 μg/mL): 72.2%
- inhibition at 100 µM (Batch 1, apigenin 100 μM/27.02 μg/mL): 103%
- inhibition at 3.125 µM (Batch 2, apigenin 3.125 μM/0.84 μg/mL): 3.7%
- inhibition at 6.25 µM (Batch 2, apigenin 6.25 μM/1.69 μg/mL): 5.8%
- inhibition at 12.5 µM (Batch 2, apigenin 12.5 μM/3.38 μg/mL): 15.7%
- inhibition at 25 µM (Batch 2, apigenin 25 μM/6.76 μg/mL): 40.7%
- inhibition at 50 µM (Batch 2, apigenin 50 μM/13.51 μg/mL): 75.6%
- inhibition at 100 µM (Batch 2, apigenin 100 μM/27.02 μg/mL): 105%
- inhibition at 3.125 µM (Batch 3, apigenin 3.125 μM/0.84 μg/mL): 0%
- inhibition at 6.25 µM (Batch 3, apigenin 6.25 μM/1.69 μg/mL): 5%
- inhibition at 12.5 µM (Batch 3, apigenin 12.5 μM/3.38 μg/mL): 17.2%
- inhibition at 25 µM (Batch 3, apigenin 25 μM/6.76 μg/mL): 39.7%
- inhibition at 50 µM (Batch 3, apigenin 50 μM/13.51 μg/mL): 75.3%
- inhibition at 100 µM (Batch 3, apigenin 100 μM/27.02 μg/mL): 103%
- inhibition at 3.125 µM (Batch 4, apigenin 3.125 μM/0.84 μg/mL): 0%
- inhibition at 6.25 µM (Batch 4, apigenin 6.25 μM/1.69 μg/mL): 0%
- inhibition at 12.5 µM (Batch 4, apigenin 12.5 μM/3.38 μg/mL): 8.9%
- inhibition at 25 µM (Batch 4, apigenin 25 μM/6.76 μg/mL): 31.9%
- inhibition at 50 µM (Batch 4, apigenin 50 μM/13.51 μg/mL): 71.9%
- inhibition at 100 µM (Batch 4, apigenin 100 μM/27.02 μg/mL): 103%
- inhibition at 3.125 µM (Batch 5, apigenin 3.125 μM/0.84 μg/mL): 2.3%
- inhibition at 6.25 µM (Batch 5, apigenin 6.25 μM/1.69 μg/mL): 11.1%
- inhibition at 12.5 µM (Batch 5, apigenin 12.5 μM/3.38 μg/mL): 18.3%
- inhibition at 25 µM (Batch 5, apigenin 25 μM/6.76 μg/mL): 36.2%
- inhibition at 50 µM (Batch 5, apigenin 50 μM/13.51 μg/mL): 77.1%
- inhibition at 100 µM (Batch 5, apigenin 100 μM/27.02 μg/mL): 110%
- inhibition at 1.5625 µM (Batch 6, apigenin 1.5625 μM/0.42 μg/mL): 0%
- inhibition at 3.125 µM (Batch 6, apigenin 3.125 μM/0.84 μg/mL): 0%
- inhibition at 6.25 µM (Batch 6, apigenin 6.25 μM/1.69 μg/mL): 0%
- inhibition at 12.5 µM (Batch 6, apigenin 12.5 μM/3.38 μg/mL): 1.3%
- inhibition at 25 µM (Batch 6, apigenin 25 μM/6.76 μg/mL): 48.7%
- inhibition at 50 µM (Batch 6, apigenin 50 μM/13.51 μg/mL): 72%
- inhibition at 0.625 µM (Batch 7, apigenin 0.625 μM/0.17 μg/mL): 8%
- inhibition at 1.25 µM (Batch 7, apigenin 1.25 μM/0.34 μg/mL): 8.3%
- inhibition at 2.5 µM (Batch 7, apigenin 2.5 μM/0.68 μg/mL): 12.8%
- inhibition at 5 µM (Batch 7, apigenin 5 μM/1.35 μg/mL): 8.7%
- inhibition at 10 µM (Batch 7, apigenin 10 μM/2.70 μg/mL): 24.7%
- inhibition at 20 µM (Batch 7, apigenin 20 μM/5.40 μg/mL): 40.4%
- inhibition at 0.3125 µM (Batch 8, apigenin 0.3125 μM/0.08 μg/mL): 4.3%
- inhibition at 0.625 µM (Batch 8, apigenin 0.625 μM/0.17 μg/mL): 9%
- inhibition at 1.25 µM (Batch 8, apigenin 1.25 μM/0.34 μg/mL): 10.1%
- inhibition at 2.5 µM (Batch 8, apigenin 2.5 μM/0.68 μg/mL): 8.9%
- inhibition at 5 µM (Batch 8, apigenin 5 μM/1.35 μg/mL): 10.4%
- inhibition at 10 µM (Batch 8, apigenin 10 μM/2.70 μg/mL): 18.3%
- inhibition at 0.15625 µM (Batch 9, apigenin 0.15625 μM/0.04 μg/mL): 1.4%
- inhibition at 0.3125 µM (Batch 9, apigenin 0.3125 μM/0.08 μg/mL): 3.9%
- inhibition at 0.625 µM (Batch 9, apigenin 0.625 μM/0.17 μg/mL): 2.1%
- inhibition at 1.25 µM (Batch 9, apigenin 1.25 μM/0.34 μg/mL): 4.6%
- inhibition at 2.5 µM (Batch 9, apigenin 2.5 μM/0.68 μg/mL): 3.2%
- inhibition at 5 µM (Batch 9, apigenin 5 μM/1.35 μg/mL): 3.2%

From patent US11491134B2, “Composition for inhibiting skin cell proliferation and/or anti-inflammation method for inhibiting skin cell proliferation and/or anti-inflammation and method for treating skin diseases and/or inflammatory diseases” (Industrial Technology Research Institute, priority 2019, dated 2022)
